“Also recorded” adds a separate entry of the source.
Tests used:
[1] = Pharmacokinetics in beagle dogs after intravenous administration; type: in vivo; settings: beagle dogs after i.v. ET-26-HCl
Protocol: (§1) Concentrations of ET-26-HCl and ET-26-acid in biological samples were determined by liquid chromatography–tandem mass spectrometry (LC–MS/MS) after deproteinization with methanol. The bioanalytical method for simultaneous quantification of ET-26-HCl and ET-26-acid in the different matrix was fully validated according to FDA guidelines (electronic supplementary material, figure S1 and tables S1 and S2) in our previous study. Briefly, a 100 µl sample (plasma, tissue homogenate, bile, urine and faeces suspension) were spiked with 20 µl of IS solution and vortexed for 30 s. The mixture was then processed for protein precipitation with 300 µl methanol, followed by centrifugation at 12 000 r.p.m. for 5 min. Supernatant was collected and analysed by LC–MS/MS system.
The LC–MS/MS was performed as described previously. Briefly, ET-26-HCl, ET-26-acid and GBP were separated using a CAPCELL PAK C18 column (50 × 2.00 mm, 5.00 µm) as well as a Security Guard Cartridge (C18, 4 mm × 3.00 mm i.d., Phenomenex). The mobile phase consisting of 0.3% formic acid water (A), and methanol (B) was pumped at a flow rate of 0.6 ml min^−1. The gradient elution was achieved according to the following protocol: 0 min to about 0.50 min, A/B (41/9, v/v); 0.51 min to about 1.5 min, A/B (1/9, v/v); and 1.51 min to about 2.00 min, A/B ([…], v/v). Mass spectrometry was conducted on an API 3000 mass spectrometer (Sciex, Framingham, MA, USA) equipped with an electrospray ionization (ESI) source operating in positive mode. The MS/MS system was in the multiple reaction monitoring (MRM) mode, using the m/z transitions of 275.6/170.9 for ET-26-HCl, 217.7/113.1 for ET-26-acid and 172.5/154.3 for GBP (IS), respectively. The API 3000 mass parameters were set according to the following protocol: curtain gas, 6 psi; collision gas, 8 psi; nebulizer, 4 psi; ion spray voltage, 3000 V and ion source temperature, 450°C. The autosampler was conditioned at 4°C, and the injection volume was 5 µl. The linear ranges of this analytical method for ET-26-HCl and for ET-26-acid from all biological samples are shown in electronic supplementary material, table S3.
Beagle dogs, weighing 9–11 kg, were purchased from Sichuan Industrial of Antibiotics, China National Pharmaceutical Group Corporation (Chengdu, China). A 3 × 3 crossover experimental design with 24 beagles (equal number of male and female dogs) randomly divided into six groups was conducted. Beagle dogs in the six groups received three doses of ET-26-HCl: 1.045 mg kg^−1, 2.090 mg kg^−1 and 4.180 mg kg^−1 as low (L), medium (M) and high (H) dose. Blood samples (2 ml) were collected from the elbow vein in 4 ml heparinized tubes before dosing, and at 1, 3, 5, 10, 20, 30, 120 and 180 min post-dosing. All blood samples were centrifuged at 8000 r.p.m. for 10 min and plasma collected and stored at −80°C until analysis.
All calculations were performed on Microsoft Excel 2016 (Microsoft Co., USA). The Drug and Statistics 3.2.7 (DAS 3.2.7) software package (Mathematical Pharmacology Professional Committee of China, China) was used to acquire the main pharmacokinetic parameters of ET-26-HCl. All data were shown as mean ± standard deviation (s.d.). Statistical significances were calculated by one-way analysis of variance (ANOVA).

[2] = Tissue distribution in Sprague Dawley rats; type: in vivo; settings: i.v. 4.2 mg kg^−1 ET-26-HCl
Protocol: as §1
Sprague Dawley (SD) rats (200–240 g) were provided by the Animal Facility at Sichuan University (Chengdu, China). All rats received a single 4.2 mg kg^−1 dose of ET-26-HCl intravenously. Rats were sacrificed and tissues, including heart, spleen, lung, intestine, colon, kidney, brain, fat, stomach, liver, muscle, testis and ovary were collected at 0, 1, 3, 6 and 10 h post-dosing (six rats/time-point). Tissue samples were rinsed thrice in ice cold saline, and blotted dry with filter papers. Weighed amount of tissues were homogenized in normal saline (thrice the tissue weight, w/v) and homogenates were stored at −80°C until analysis.

[3] = Excretion (urine, faeces, bile) in Sprague Dawley rats; type: in vivo
Protocol: as §1
SD rats (4 male and 4 female) received 4.2 mg kg^−1 of ET-26-HCl intravenously and were housed in metabolic cages. Urine and faeces from the treated rats were collected between 0–6, 6–12, 12–24, 24–30, 30–36 and 36–48 h post-dosing. Urine volume and faeces weight were measured and recorded.
Bile fistulas of SD rats (four male and four female) were cannulated with polyethylene tube (Instech Laboratories, Inc., USA) and bile was collected at the following time-points: 0–3, 3–6, 6–9, 9–12 and 12–24 h post-dosing. The volume of the collected bile was measured and stored at −80°C until analysis.

[4] = Stability in beagle plasma (LC-MS/MS); type: in vitro ADME
Protocol: as §1

[5] = rats, i.v. ET-26-HCl; cited from earlier work
[6] = Identification of major metabolites in liver microsomes (UPLC-Q-TOF-MS); type: in vitro ADME, mouse, rat, beagle dog, monkey and human; settings: 10 µM ET-26-HCl, 1 mg ml^−1 liver microsomes, NADPH, 1 h
Protocol: The major metabolites of ET-26-HCl in liver microsomes from mouse, rat, beagle dog, monkey and human were determined by the UPLC-Q-TOF-MS system.
Reaction mixture containing 10 µM ET-26-HCl, […] MgCl2 and 1 mg ml^−1 liver microsomes in Tris-HCl phosphate buffer (pH 7.4) was pre-incubated for 6 min at 37°C, followed by the addition of NADPH. After incubation for 1 h, methanol was added to stop the reaction. Samples were centrifuged at 11 000 r.p.m. for 5 min; supernatants were collected and air dried at 40°C. Residues were dissolved in 100 µl acetonitrile/water (1:1, v/v) and analysed by the UPLC-Q-TOF-MS.
The UPLC-Q-OF-MS system was equipped with a Waters Synapt G2-Si quadrupole time-of-flight mass spectrometer (Q-TOF-MS), an ESI source and an ACQUITY UPLC H-CLASS liquid chromatography system. The chromatographic separations were achieved on an ACQUITY UPLC BEH C18 column (2.1 × 100 mm, i.d. 1.7 µm, Waters, USA) kept at 45°C and a flow rate of 0.4 ml min^−1. The mobile phase consisted of 5 mM ammonium acetate with 0.1% formic acid (A) and acetonitrile with 0.1% formic acid (B). The optimized gradient elution programme followed was 0 min to 2.1 min, A/B (19/1, v/v); 2.1 min to 7.3 min, A/B (1/4, v/v); 7.3 min to 8.0 min, A/B (1/9, v/v); and 8.0 min to 10 min, A/B (19/1, v/v). The injection volume was 5 µl. The mass experiment was operated in positive ion modes under the following parameters: turbo spray temperature, 120°C; ion spray voltage, 3.0 kV. Nitrogen was used as the nebulizer and the auxiliary gas; meanwhile, the nebulizer gas was set to 650 l h^−1 and kept at 350°C. The collision energy was set at 5–10 V and the collision energy spread was 4–6 V. TOF-MS was scanned with the mass range of m/z 50–600 with 200 ms accumulation time. A 400 ng ml^−1 leu-enkephalin (m/z 556.2771) was selected as an external standard for mass–charge ratio correction at a flow rate of 5 µl min^−1.

[7] = i.v. ET-26-HCl 4.2 mg kg^−1, collected to 48 h

Row | SMILES | plasma concentration of ET-26-acid (in words) [1] | time for clearance from tissues [2] | tissues with the highest concentration [2] | accumulative excretion through bile ([3]; i.v. ET-26-HCl 4.2 mg kg^−1, bile collected to 24 h) [%] | accumulative excretion through faeces [3, 7] [%] | accumulative excretion through urine [3, 7] [%] | Measured concentration (Mean ± SD) ([4]; 4◦C for 3 h, nominal 38.24 ng/mL) [ng/mL] | Measured concentration (Mean ± SD) ([4]; 4◦C for 3 h, nominal 3186 ng/mL) [ng/mL] | Measured concentration (Mean ± SD) ([4]; Freeze and Thaw Cycle (3), nominal 38.24 ng/mL) [ng/mL] | Measured concentration (Mean ± SD) ([4]; Freeze and Thaw Cycle (3), nominal 3186 ng/mL) [ng/mL] | Measured concentration (Mean ± SD) ([4]; Room temperature 3 h, nominal 38.24 ng/mL) [ng/mL] | Measured concentration (Mean ± SD) ([4]; Room temperature 3 h, nominal 3186 ng/mL) [ng/mL] | Measured concentration (Mean ± SD) ([4]; –80 ◦C for 30 days, nominal 38.24 ng/mL) [ng/mL] | Measured concentration (Mean ± SD) ([4]; –80 ◦C for 30 days, nominal 3186 ng/mL) [ng/mL] | plasma exposure of metabolite relative to parent (in words) [5] | source (liver microsomes) in which detected [6]
1 | C[C@H](c1ccccc1)n1cncc1C(=O)O [ET-26-acid] | almost non-detectable; also recorded: almost undetectable | around 3 h | plasma and liver | 0.027 | 0.080 | 12.49 | 39.92 ± 2.904 | 2890 ± 174.8 | 36.23 ± 2.568 | 2770 ± 157.7 | 38.29 ± 4.088 | 2890 ± 117.6 | 35.84 ± 1.899 | 3049 ± 391.4 | higher plasma exposure than the parent drug | –
2 | C[C@H](c1ccccc1)n1cncc1C(=O)OCCO [M2] | – | – | – | – | – | – | – | – | – | – | – | – | – | – | – | every liver microsomal preparation; also recorded: human, monkey, dog, rat, mouse

Source: PMC7062083, “Metabolite identification, tissue distribution, excretion and preclinical pharmacokinetic studies of ET-26-HCl, a new analogue of etomidate” (Royal Society Open Science, 2020)
